From PubChem BioAssay AID330 (DTP/NCI, 2004)
Toxic doses and inconclusive results are not listed.

Tested on: P388 leukemia ip, CD2F1 mice, survival T/C
Test: NCI In Vivo Anticancer Drug Screen. Data for tumor model P388 Leukemia (intraperitoneal) in CD2F1 (CDF1) mice
Conditions: endpoint: median survival time, higher = longer survival
How it was run: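 Mice carrying the transplanted tumor received test compound or vehicle. Survival was recorded in each group, and the value is the treated-group measurement divided by that of the vehicle-treated control group.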

[1] = dose: 25.0 mg/kg/injection, schedule: Q01DX005 (ip), vehicle: Klucel (hydroxypropylcellulose) (HPC)
[2] = dose: 50.0 mg/kg/injection, schedule: Q01DX005 (ip), vehicle: Klucel (hydroxypropylcellulose) (HPC)
[3] = dose: 60.0 mg/kg/injection, schedule: Q01DX005 (ip), vehicle: Klucel (hydroxypropylcellulose) (HPC)
[4] = dose: 100.0 mg/kg/injection, schedule: Q01DX005 (ip), vehicle: Klucel (hydroxypropylcellulose) (HPC)
[5] = dose: 12.5 mg/kg/injection, schedule: Q01DX009 (ip), vehicle: saline with Tween-80

Compound: CCN(CC)CCOC(=O)Nc1c(Cl)cccc1Cl
- T/C [1]: 100 % of control
- T/C [2]: 107 % of control
- T/C [3]: 100 % of control
- T/C [4]: 100 % of control

Compound: C[CH2][Sn]([CH2]C)([CH2]C(=O)OC)[CH2]C(=O)OC
- T/C (dose: 9.0 mg/kg/injection, schedule: Q03HX015 (ip), vehicle: saline with Tween-80): 153 % of control
- T/C [5]: 170 % of control
- T/C (dose: 18.0 mg/kg/injection, schedule: Q01DX005 (ip), vehicle: saline with Tween-80): 150 % of control
- T/C (dose: 100.0 mg/kg/injection, schedule: Q01DX009 (ip), vehicle: saline with Tween-80): 174 % of control

Compound: CN(C)C1C(=O)C(C(N)=O)=C(O)C2(O)C(=O)C3=C(O)c4c(O)cccc4C(C)(O)C3CC12 (stereo not drawn)
- T/C [1]: 94 % of control
- T/C [2]: 95 % of control
- T/C [4]: 95 % of control

Compound: Brc1ccc(N=Cc2cccs2)cc1
- T/C (dose: 100.0 mg/kg/injection, schedule: Q04DX003 (ip), vehicle: saline): 100 % of control
- T/C (dose: 200.0 mg/kg/injection, schedule: Q04DX003 (ip), vehicle: saline): 99 % of control
- T/C (dose: 400.0 mg/kg/injection, schedule: Q04DX003 (ip), vehicle: saline): 98 % of control

Compound: N/N=C1\c2ccccc2-c2cccc(O)c21
- T/C (dose: 7.5 mg/kg/injection, schedule: Q01DX005 (ip), vehicle: saline with Tween-80): 101 % of control
- T/C (dose: 15.0 mg/kg/injection, schedule: Q01DX005 (ip), vehicle: saline with Tween-80): 97 % of control
- T/C (dose: 30.0 mg/kg/injection, schedule: Q01DX005 (ip), vehicle: saline with Tween-80): 93 % of control

Compound: COc1cc2cnc(-c3ccccn3)c(O)c2cc1OC
- T/C (dose: 50.0 mg/kg/injection, schedule: Q01DX009 (ip), vehicle: saline): 100 % of control
- T/C (dose: 100.0 mg/kg/injection, schedule: Q01DX009 (ip), vehicle: saline): 90 % of control
- T/C (dose: 200.0 mg/kg/injection, schedule: Q01DX009 (ip), vehicle: saline): 94 % of control

Compound: COc1ccc(/C=N/NC(=O)CNC(=O)c2ccc(Cl)c(Cl)c2)cc1
- T/C (dose: 3.13 mg/kg/injection, schedule: Q01DX009 (ip), vehicle: saline with Tween-80): 100 % of control
- T/C (dose: 6.25 mg/kg/injection, schedule: Q01DX009 (ip), vehicle: saline with Tween-80): 108 % of control
- T/C [5]: 107 % of control

Compound: CC1(C)N=C(N)N=C(N)N1c1ccc(CCc2ccccc2)c(Cl)c1
- T/C (dose: 4.1 mg/kg/injection, schedule: Q01DX009 (ip), vehicle: saline with Tween-80): 118 % of control
- T/C (dose: 6.25 mg/kg/injection, schedule: Q04DX003 (ip), vehicle: saline sonified): 113 % of control
- T/C (dose: 9.3 mg/kg/injection, schedule: Q01DX009 (ip), vehicle: saline with Tween-80): 118 % of control
- T/C (dose: 12.5 mg/kg/injection, schedule: Q04DX003 (ip), vehicle: saline sonified): 104 % of control
- T/C (dose: 25.0 mg/kg/injection, schedule: Q04DX003 (ip), vehicle: saline sonified): 100 % of control

Compound: COc1ccc2c(c1OC(C)=O)-c1cc(O)cc3c1C(C2)N(C(=O)CN(CCCl)CCCl)CC3 (stereo not drawn)
- T/C (dose: 3.13 mg/kg/injection, schedule: Q04DX003 (ip), vehicle: DMSO): 116 % of control
- T/C (dose: 6.25 mg/kg/injection, schedule: Q04DX003 (ip), vehicle: DMSO): 123 % of control
- T/C (dose: 12.5 mg/kg/injection, schedule: Q04DX003 (ip), vehicle: DMSO): 174 % of control
- T/C (dose: 25.0 mg/kg/injection, schedule: Q04DX003 (ip), vehicle: DMSO): 168 % of control
- T/C (dose: 25.0 mg/kg/injection, schedule: Q04DX003 (ip), vehicle: distilled water + Tween-80): 154 % of control
- T/C (dose: 50.0 mg/kg/injection, schedule: Q04DX003 (ip), vehicle: DMSO): 169 % of control
- T/C (dose: 50.0 mg/kg/injection, schedule: Q04DX003 (ip), vehicle: saline): 87 % of control

Compound: Oc1c(-c2ccccc2)nc2ccccn12
- T/C [3]: 94 % of control
- T/C (dose: 120.0 mg/kg/injection, schedule: Q01DX005 (ip), vehicle: Klucel (hydroxypropylcellulose) (HPC)): 96 % of control
- T/C (dose: 240.0 mg/kg/injection, schedule: Q01DX005 (ip), vehicle: Klucel (hydroxypropylcellulose) (HPC)): 107 % of control
